Data: patent US12564591B2, “HCK as a therapeutic target in MYD88 mutated diseases” (Dana-Farber Cancer Institute, Inc., priority 2019, dated 2026)
Entries after “also recorded” stand apart in the source; their conditions may differ. Read-outs that look alike come from different tables or passages of the source.

What was measured:
[1] = Liver microsome stability; assay type: in vitro ADME; conditions: rat, liver microsomes
[2] = tested on: HCK activation (pHCK^Y411); assay: pHCK by PhosFlow in HCK^WT or HCK^T333M transduced BCWM.1 cells; assay type: cell-based; conditions: HCK^T333M but not HCK^WT expressing BCWM.1 cells
Excerpt: (§1) An HCK gatekeeper mutant HCK^T333M was generated and rescue experiments performed in MYD88 mutated BCWM.1 cells. Expression of HCK^T333M produced a more than 20-fold increase in resistance to Compound (I) versus vector or wild-type HCK transduced BCWM.1 cells (FIG. 5A).

[3] = tested on: healthy donor CD19+ B-cells; assay: Apoptosis of healthy donor B-cells; assay type: cell-based, human
Method: (§2) The anti-tumor activity of Compound (I) was also assessed using primary MYD88 mutated bone marrow derived CD19-positive lymphoplasmacytic cells (LPCs) from WM patients, and compared effects against healthy donor CD19+ B-cells.

HCK [4] = target: T1, HCK (Homo sapiens, UniProt P08631); assay: Enzymatic / biochemical kinase assay (SelectScreen, Life Technologies)
T1 sequence (P08631 whole entry): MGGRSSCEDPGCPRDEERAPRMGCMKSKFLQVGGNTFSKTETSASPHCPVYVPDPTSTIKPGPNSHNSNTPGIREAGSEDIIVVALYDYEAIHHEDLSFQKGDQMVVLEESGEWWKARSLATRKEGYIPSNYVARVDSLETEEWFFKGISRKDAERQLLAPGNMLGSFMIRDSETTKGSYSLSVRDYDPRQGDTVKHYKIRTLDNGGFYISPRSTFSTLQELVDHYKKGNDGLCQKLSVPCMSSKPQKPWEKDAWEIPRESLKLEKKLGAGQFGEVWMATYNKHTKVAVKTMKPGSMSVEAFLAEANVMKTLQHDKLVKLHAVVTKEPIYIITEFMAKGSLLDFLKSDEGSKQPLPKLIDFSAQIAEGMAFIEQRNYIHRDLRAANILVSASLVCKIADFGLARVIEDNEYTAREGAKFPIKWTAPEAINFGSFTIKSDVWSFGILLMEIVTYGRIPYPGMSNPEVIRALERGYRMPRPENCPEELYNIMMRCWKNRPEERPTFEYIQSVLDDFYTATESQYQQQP

HCK [5] = target: T1, HCK; assay: ATP-competitive pulldown assay (desthiobiotin-ATP probe, western blot) in live BCWM.1 and TMD8 cells; assay type: cell-based; set-up: purchased Life Technologies (SelectScreen); conditions: live cell pre-treatment
CYP2D6 = CYP2D6 (Homo sapiens, UniProt P10635); assay: In vitro CYP inhibition; assay type: in vitro ADME; set-up: dose or concentration left out as unconfirmed; conditions: at 10 PM, read-out: CYP inhibition (2D6)
Sequence of CYP2D6 (P10635 whole entry): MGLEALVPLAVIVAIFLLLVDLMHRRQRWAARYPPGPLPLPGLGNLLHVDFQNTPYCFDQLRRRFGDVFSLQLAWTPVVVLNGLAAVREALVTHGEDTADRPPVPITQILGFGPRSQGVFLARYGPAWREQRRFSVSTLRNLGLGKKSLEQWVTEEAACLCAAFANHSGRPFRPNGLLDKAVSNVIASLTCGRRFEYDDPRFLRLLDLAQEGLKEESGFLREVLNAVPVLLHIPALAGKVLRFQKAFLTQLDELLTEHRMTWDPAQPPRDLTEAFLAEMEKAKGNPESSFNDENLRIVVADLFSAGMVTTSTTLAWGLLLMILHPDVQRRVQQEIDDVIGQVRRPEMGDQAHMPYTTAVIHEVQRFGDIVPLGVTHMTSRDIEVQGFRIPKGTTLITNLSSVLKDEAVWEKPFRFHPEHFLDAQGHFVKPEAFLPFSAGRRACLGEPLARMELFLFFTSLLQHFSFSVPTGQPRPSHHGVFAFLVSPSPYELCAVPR
Excerpt: (§3) […]. […] […].

CYP1A = assay: In vitro CYP inhibition; assay type: in vitro ADME; set-up: dose or concentration left out as unconfirmed; conditions: at 10 PM; read-out: CYP inhibition (1A)
Excerpt: as §3

CYP2C19 = CYP2C19 (Homo sapiens, UniProt P33261); assay: In vitro CYP inhibition; assay type: in vitro ADME; set-up: dose or concentration left out as unconfirmed; conditions: at 10 PM, read-out: CYP inhibition (2C19)
Sequence of CYP2C19 (P33261 whole entry): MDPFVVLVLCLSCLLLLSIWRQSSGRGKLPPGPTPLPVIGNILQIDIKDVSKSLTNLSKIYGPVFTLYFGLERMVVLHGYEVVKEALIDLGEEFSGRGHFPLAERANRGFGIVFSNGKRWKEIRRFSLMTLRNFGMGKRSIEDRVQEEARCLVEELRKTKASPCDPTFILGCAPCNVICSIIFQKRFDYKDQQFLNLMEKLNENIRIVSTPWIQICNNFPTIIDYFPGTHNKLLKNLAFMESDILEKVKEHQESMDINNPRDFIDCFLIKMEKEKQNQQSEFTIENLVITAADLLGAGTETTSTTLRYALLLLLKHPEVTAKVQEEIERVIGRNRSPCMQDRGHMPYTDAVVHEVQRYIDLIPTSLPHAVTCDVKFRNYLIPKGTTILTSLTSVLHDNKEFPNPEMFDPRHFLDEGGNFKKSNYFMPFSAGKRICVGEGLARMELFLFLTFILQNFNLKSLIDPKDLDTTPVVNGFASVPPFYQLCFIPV
Excerpt: as §3

CYP2C9 = CYP2C9 (Homo sapiens, UniProt P11712); assay: In vitro CYP inhibition; assay type: in vitro ADME; set-up: dose or concentration left out as unconfirmed; conditions: at 10 PM, read-out: CYP inhibition (2C9)
Excerpt: as §3

CYP2B6 = CYP2B6 (Homo sapiens, UniProt P20813); assay: In vitro CYP inhibition; assay type: in vitro ADME; set-up: dose or concentration left out as unconfirmed; conditions: at 10 PM, read-out: CYP inhibition (2B6)
Sequence of CYP2B6 (P20813 whole entry): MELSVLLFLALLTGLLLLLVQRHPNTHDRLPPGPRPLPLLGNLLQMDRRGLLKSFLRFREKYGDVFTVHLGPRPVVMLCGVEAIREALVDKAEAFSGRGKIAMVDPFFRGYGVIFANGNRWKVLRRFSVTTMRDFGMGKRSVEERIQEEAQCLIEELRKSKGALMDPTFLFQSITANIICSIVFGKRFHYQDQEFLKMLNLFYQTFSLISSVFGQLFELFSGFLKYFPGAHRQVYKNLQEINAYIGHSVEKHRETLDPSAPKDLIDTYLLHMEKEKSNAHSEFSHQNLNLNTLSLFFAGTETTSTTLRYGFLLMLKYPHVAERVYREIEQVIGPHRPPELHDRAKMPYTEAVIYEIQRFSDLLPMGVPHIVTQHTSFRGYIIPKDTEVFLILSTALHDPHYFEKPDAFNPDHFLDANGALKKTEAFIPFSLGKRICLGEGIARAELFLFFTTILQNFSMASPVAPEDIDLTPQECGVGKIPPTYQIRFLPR
Excerpt: as §3

CYP2C8 = CYP2C8 (Homo sapiens, UniProt P10632); assay: In vitro CYP inhibition; assay type: in vitro ADME; set-up: dose or concentration left out as unconfirmed; conditions: at 10 PM, read-out: CYP inhibition (2C8)
Sequence of CYP2C8 (P10632 whole entry): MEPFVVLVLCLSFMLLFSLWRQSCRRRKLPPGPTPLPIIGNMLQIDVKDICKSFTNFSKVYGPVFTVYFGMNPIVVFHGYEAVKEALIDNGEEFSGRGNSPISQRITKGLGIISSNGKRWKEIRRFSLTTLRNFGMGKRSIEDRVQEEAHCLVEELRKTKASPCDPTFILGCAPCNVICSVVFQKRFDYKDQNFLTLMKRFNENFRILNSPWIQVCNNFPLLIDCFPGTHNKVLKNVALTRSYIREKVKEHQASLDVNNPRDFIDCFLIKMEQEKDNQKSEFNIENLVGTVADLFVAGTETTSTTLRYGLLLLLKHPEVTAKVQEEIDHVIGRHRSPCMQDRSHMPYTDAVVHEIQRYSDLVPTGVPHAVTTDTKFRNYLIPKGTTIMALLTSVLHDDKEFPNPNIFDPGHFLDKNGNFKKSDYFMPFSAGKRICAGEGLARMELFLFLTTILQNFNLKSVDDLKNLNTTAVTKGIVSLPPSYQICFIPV
Excerpt: as §3

[6] = tested on: pBTK, pAKT, pERK1/2, and pSYK; assay: Western blot of downstream signaling in HCK^WT or HCK^T333M transduced BCWM.1 cells; assay type: cell-based
Excerpt: as §1

[7] = Liver microsome stability; assay type: in vitro ADME; conditions: dog, liver microsomes; dogs; read-out: half-life t1/2 with purified microsomes
[8] = tested on: MYD88 mutated WM and ABC DLBCL cell lines versus MYD88 wild-type GCB DLBCL, Burkitt's Lymphoma, and multiple myeloma cell lines; assay: CellTiter-Glo cell viability, MYD88 mutated versus wild-type cell lines; assay type: cell-based
LYN [9] = target: T2, LYN (Homo sapiens, UniProt P07948); assay: ATP-competitive pulldown assay (desthiobiotin-ATP probe, western blot) in live BCWM.1 and TMD8 cells; assay type: cell-based; set-up: endogenous in cells; host or cells: BCWM.1 and TMD8 cells
T2 sequence (P07948 whole entry): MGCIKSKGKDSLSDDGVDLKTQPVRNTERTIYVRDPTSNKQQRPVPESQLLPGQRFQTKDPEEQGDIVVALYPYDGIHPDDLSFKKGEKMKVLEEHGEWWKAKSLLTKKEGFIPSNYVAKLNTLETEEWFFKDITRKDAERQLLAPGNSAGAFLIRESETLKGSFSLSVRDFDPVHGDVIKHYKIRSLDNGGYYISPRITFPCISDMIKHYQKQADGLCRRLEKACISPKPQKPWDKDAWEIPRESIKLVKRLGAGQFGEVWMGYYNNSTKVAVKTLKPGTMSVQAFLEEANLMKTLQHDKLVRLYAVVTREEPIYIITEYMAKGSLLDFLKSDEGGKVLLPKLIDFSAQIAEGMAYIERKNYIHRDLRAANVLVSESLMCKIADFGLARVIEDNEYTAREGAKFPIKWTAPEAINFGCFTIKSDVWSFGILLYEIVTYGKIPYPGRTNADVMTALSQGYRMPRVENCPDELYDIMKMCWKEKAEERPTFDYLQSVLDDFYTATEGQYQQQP

[10] = Survivability of treated subjects; assay type: in vivo; conditions: compared to subjects treated with other BTK inhibitors (e.g., ibrutinib, A419259)
panel of 464 kinases = assay: KINOMEscan kinome selectivity profiling (DiscoverX); assay type: binding; conditions: for S(1) score / S(10) score: 1.0 μM, panel of over 460 kinases
Method: The compounds were profiled at a concentration of 1.0 μM against a panel of over 460 kinases by DiscoverX.

LYN [11] = target: T2, LYN; assay: Enzymatic assay (SelectScreen, Life Technologies); assay type: biochemical
[12] = tested on: Salmonella typhimurium tester strains (TA98, TA100, TA1535 and TA1537); assay: Ames genotoxicity testing; conditions: up to 50 μM with and without metabolic activation by rat liver S9 fraction
[13] = tested on: BTK and ERK 1/2 phosphorylation; conditions: vector only, and BTK^WT transduced BCWM.1 or TMD8 cells, 1.0 hour
BTK [14] = target: T3, BTK (Homo sapiens, UniProt Q06187); assay: ATP-competitive pulldown assay (desthiobiotin-ATP probe, western blot) in live BCWM.1 and TMD8 cells; assay type: cell-based; conditions: live cell pre-treatment
T3 sequence (Q06187 whole entry): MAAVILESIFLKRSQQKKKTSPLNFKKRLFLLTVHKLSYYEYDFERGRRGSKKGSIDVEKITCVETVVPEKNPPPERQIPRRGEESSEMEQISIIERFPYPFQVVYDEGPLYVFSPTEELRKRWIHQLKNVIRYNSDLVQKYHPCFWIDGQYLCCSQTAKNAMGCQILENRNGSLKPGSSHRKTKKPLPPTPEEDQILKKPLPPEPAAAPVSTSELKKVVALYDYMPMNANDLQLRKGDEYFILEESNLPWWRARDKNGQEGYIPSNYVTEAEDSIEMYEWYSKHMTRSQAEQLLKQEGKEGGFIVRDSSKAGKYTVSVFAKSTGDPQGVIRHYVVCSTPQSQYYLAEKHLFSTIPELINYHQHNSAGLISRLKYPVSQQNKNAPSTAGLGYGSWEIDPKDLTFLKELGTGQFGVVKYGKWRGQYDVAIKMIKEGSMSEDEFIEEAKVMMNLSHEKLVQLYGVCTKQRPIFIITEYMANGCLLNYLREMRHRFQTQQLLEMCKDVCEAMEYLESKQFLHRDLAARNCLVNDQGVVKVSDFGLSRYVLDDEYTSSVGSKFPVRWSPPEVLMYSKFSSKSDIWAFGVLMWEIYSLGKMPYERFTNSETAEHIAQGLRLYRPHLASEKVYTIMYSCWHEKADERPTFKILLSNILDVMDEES

Plasma protein binding = assay type: in vitro ADME
Excerpt: as §3

[15] = Liver microsome stability; assay type: in vitro ADME; conditions: human, liver microsomes
[16] = tested on: vector, HCK^WT or HCK^T333M transduced BCWM.1 cells; assay: HCK^T333M gatekeeper mutant rescue, dose-response 72 hours; assay type: cell-based; conditions: versus vector or wild-type HCK transduced BCWM.1 cells
Excerpt: as §1

[17] = Tolerability study, daily oral dosing; assay type: in vivo; conditions: up to 75 mg/kg daily oral dosing, NOD-SCID mice dosed for >6 weeks, no adverse events observed
Excerpt: as §3

[18] = tested on: p-HCK and p-BTK in WM patients LPCs; assay: p-HCK and p-BTK by PhosFlow in MYD88 mutated WM patient bone marrow tumor cells; assay type: cell-based, human
Method: as §2

[19] = Liver microsome stability; assay type: in vitro ADME; conditions: mouse, liver microsomes
[20] = tested on: vector, HCK^WT or HCK^T333M transduced TMD8 ABC DLBCL cells; assay: HCK^T333M gatekeeper mutant rescue, dose-response 72 hours; assay type: cell-based
Method: Dose-responses of vector only or HCK^WT or HCK^T333M transduced […] cells following the treatment Compound (I) for 72 hours (FIG. 7A).

[21] = Murine pharmacokinetics (intravenous and oral); assay type: in vivo; conditions: mouse, serum; for bioavailability: read-out: bioavailability (% F)
[22] = tested on: vector, HCK^WT or HCK^T333M transduced MWCL-1 WM cells; assay: HCK^T333M gatekeeper mutant rescue, dose-response 72 hours; assay type: cell-based
Method: Dose-responses of vector only or HCK^WT or HCK^T333M transduced MWCL-1 cells following the treatment Compound (I) for 72 hours (FIG. 6A).

[23] = tested on: kinases in TMD8 ABC DLBCL cells; assay: KiNativ live-cell target engagement profiling (desthiobiotin-ATP probe); assay type: cell-based
hERG = hERG (Homo sapiens, UniProt Q12809); assay: hERG testing (patch clamp) for cardiotoxicity; assay type: cell-based; conditions: at 16 μM
Sequence of hERG (Q12809 whole entry): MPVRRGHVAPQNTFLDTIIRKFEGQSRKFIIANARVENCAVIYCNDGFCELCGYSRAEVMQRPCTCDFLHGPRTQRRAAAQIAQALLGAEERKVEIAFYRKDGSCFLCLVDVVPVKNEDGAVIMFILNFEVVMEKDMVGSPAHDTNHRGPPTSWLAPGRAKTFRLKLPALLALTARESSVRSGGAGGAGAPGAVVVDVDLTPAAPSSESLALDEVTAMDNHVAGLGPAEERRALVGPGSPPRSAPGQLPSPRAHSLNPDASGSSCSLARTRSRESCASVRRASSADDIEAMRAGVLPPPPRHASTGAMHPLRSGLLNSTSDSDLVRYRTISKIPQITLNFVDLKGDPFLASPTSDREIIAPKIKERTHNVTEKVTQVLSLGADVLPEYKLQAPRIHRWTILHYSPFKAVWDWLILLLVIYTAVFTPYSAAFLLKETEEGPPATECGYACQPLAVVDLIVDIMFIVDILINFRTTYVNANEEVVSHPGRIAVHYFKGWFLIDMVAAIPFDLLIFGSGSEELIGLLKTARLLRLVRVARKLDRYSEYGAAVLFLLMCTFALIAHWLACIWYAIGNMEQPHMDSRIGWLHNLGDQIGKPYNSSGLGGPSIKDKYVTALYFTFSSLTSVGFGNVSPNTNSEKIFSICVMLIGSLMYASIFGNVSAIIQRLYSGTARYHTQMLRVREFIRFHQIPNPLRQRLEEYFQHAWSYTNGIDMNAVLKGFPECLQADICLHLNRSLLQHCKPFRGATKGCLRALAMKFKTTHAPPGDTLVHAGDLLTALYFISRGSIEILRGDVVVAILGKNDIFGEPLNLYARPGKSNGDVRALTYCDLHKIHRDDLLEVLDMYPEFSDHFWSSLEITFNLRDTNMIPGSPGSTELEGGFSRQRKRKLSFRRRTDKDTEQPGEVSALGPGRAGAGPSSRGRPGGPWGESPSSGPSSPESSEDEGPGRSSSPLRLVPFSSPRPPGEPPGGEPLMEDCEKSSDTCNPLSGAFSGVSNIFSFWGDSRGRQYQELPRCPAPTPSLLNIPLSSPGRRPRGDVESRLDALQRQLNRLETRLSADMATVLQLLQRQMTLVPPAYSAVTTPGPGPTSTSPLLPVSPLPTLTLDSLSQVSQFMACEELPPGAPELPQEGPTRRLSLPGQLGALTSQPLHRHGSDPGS
Excerpt: as §3

BTK [24] = target: T3, BTK; assay: Enzymatic / biochemical kinase assay (SelectScreen, Life Technologies); set-up: purchased Life Technologies (SelectScreen)
[25] = tested on: HCK phosphorylation at Thr^209; conditions: MYD88 mutated WM and ABC DLBCL cells
[26] = tested on: primary MYD88 mutated bone marrow derived CD19-positive lymphoplasmacytic cells (LPCs) from WM patients; assay: Apoptosis of primary WM patient lymphoplasmacytic cells; assay type: cell-based, human
Method: as §2

[27] = Pharmacokinetics of A419259 under oral administration
[28] = read-out: T1/2 in liver microsomes
[29] = HCK^T333M expressing BCWM.1 cells

## CN1CCN(C2CCC(n3nc(-c4ccc(Oc5ccccc5)cc4)c4c(N)ncnc43)CC2)CC1 (stereo not shown) [Compound (I), 1-((1r,4r)-4-(4-methylpiperazin-1-yl)cyclohexyl)-3-(4-phenoxyphenyl)-1H-pyrazolo[3,4-d]pyrimidin-4-amine]
[1]; rats, read-out: half-life t1/2 with purified microsomes
  half-life: > 2 h
[1]; [28]
  half-life: ≥ 1 h
[2]
  HCK activation in the presence of compound: persistent activation of HCK
[3]
  apoptotic effect: no apoptotic effect
HCK [4]
  IC50s (in words): single-digit nanomolar
HCK [5]
  engagement of / binding to HCK: robust engagement; also recorded: very strongly binds
CYP2D6
  inhibition: 24.9%
CYP1A
  inhibition: -27.9%
CYP2C19
  inhibition: 0.8%
CYP2C9
  inhibition: -10.9%
CYP2B6
  inhibition: 64.5%
CYP2C8
  inhibition: -3.8%
[6]; [29]
  attenuation of pBTK, pAKT, pERK1/2, and pSYK: abrogated
  pBTK: continued to show reduced activity
[6]; HCK^WT expressing BCWM.1 cells
  expression of pBTK, pAKT, pERK1/2, and p-SYK: blocked the expression of pBTK, pAKT, pERK1/2, and p-SYK in a dose dependent manner
[7]
  half-life: 1 h
[8]
  anti-tumor activity: targeted anti-tumor activity
LYN [9]
  binding to LYN: very strongly binds
[10]
  survivability: increased survivability
Panel of 464 kinases
  S(1) score: 0.07
  S(10) score: 0.13
Panel of 464 kinases; panel of 464 kinases
  S10: 0.07
  S35: 0.13
  targeted kinases: mainly limited to the Src-family kinases HCK, BLK, LYN, and FRK, and the Tec-family kinase BTK
LYN [11]
  IC50s (in words): single-digit nanomolar
[12]
  Ames genotoxicity: negative
[13]
  BTK and ERK 1/2 phosphorylation: effectively blocked
BTK [14]
  BTK inhibition / binding: effectively binds
Plasma protein binding; dog, dogs
  fraction unbound: 0.05
Plasma protein binding; human, humans
  fraction unbound: 0.043
Plasma protein binding; mouse, mice
  fraction unbound: 0.023
Plasma protein binding; rat, rats
  fraction unbound: 0.045
[15]; humans, read-out: half-life t1/2 with purified microsomes
  half-life: 0.825 h
[15]; [28]
  half-life: ≥ 1 h
[16]
  increase in resistance by expression of HCK^T333M: more than 20 fold
[17]
  tolerability: well-tolerated
[18]
  p-HCK and p-BTK levels: reduction of p-HCK(T209) and p-BTK^Y223
[19]; mice, read-out: half-life t1/2 with purified microsomes
  half-life: 1.77 h
[19]; [28]
  half-life: ≥ 1 h
[20]
  effect of HCK^T333M on compound induced cell death: rescues Compound (I) induced cell death
[21]; intravenous, 2 mg/kg, read-out: in vivo clearance rate
  clearance: 1.04 L/h/kg
[21]; po, 10 mg/kg, 10 mg/kg oral
  bioavailability: 49%
[21]; po, 25 mg/kg, 25 mg/kg oral
  bioavailability: 55%
[21]; po, orally at 10 mg/kg
  AUC: 5.2 µM·h
[21]; po, orally at 10 mg/kg and 25 mg/kg, read-out: T1/2
  half-life: 15.1 to 16.9 h
[21]; po, orally at 25 mg/kg
  AUC: 11.4 µM·h
[21]; 10 mg/kg oral, read-out: serum half-life (converted)
  half-life: 15.1 h
[21]; 25 mg/kg oral, read-out: serum half-life (converted)
  half-life: 16.9 h
[21]; intravenous administration (2 mg/kg), read-out: serum half-life (converted)
  half-life: 11.5 h
[22]
  effect of HCK^T333M on compound induced cell death: rescues Compound (I) induced cell death
[23]
  activity against SRC-family kinases (HCK, BLK, LYN, FRK), Tec-family kinases (BTK), ACK (TNK2), CSK, ErbB2, and ABL: nanomolar activity
[23]; TMD8 ABC DLBCL cells treated at 1. μM
  target engagement (block of kinase binding to desthiobiotin-ATP probe): strongly targeted both HCK and BTK
hERG
  hERG cardiotoxicity (patch clamp): negative
BTK [24]
  IC50s (in words): single-digit nanomolar
[25]
  inhibition of HCK phosphorylation: robust inhibition
[26]
  apoptotic effect: robust apoptosis

## CN1CCN([C@H]2CC[C@H](n3nc(-c4ccc(Oc5ccccc5)cc4)c4c(N)ncnc43)CC2)CC1 [Compound (I), 1-((1r,4r)-4-(4-methylpiperazin-1-yl)cyclohexyl)-3-(4-phenoxyphenyl)-1H-pyrazolo[3,4-d]pyrimidin-4-amine]
HCK [4]
  IC50: < 0.495 nM
BTK [24]
  IC50: 0.915 nM

## CN1CCN(C2CCC(n3cc(-c4ccc(Oc5ccccc5)cc4)c4c(N)ncnc43)CC2)CC1 (stereo not shown) [Compound A419259, reference compound]
Panel of 464 kinases
  S(1) score: 0.07
  S(10) score: 0.13
[27]
  Tui2: 176.0 h
